Source: publication PMC6888615, “A Miniaturized Pump Out Method for Characterizing Molecule Interaction with ABC Transporters” (International Journal of Molecular Sciences, 2019)
Where two headings read alike, the source gives them in different places.

Tests used:
[1] = tested on: MRPs; experiment: Caco-2 pump out assay, CMFDA excretion; assay type: cell-based; settings: for effect on rate out of CMFDA: 50 µM (cyclosporin A 10 µM; doxorubicin 20 µM); for reduction of kout of CMFDA: 50 µM (elacridar 10 µM), p < 0.001
[2] = tested on: MRPs; parameters: method as in PMID 21415249; settings: read-out: MRPs IC50 published value; cited from earlier work
[3] = tested on: P-gp; settings: cited from earlier work
[4] = tested on: BCRP; settings: cited from earlier work
[5] = tested on: MRPs; settings: cited from earlier work
[6] = tested on: P-gp/BCRP; experiment: Caco-2 pump out assay, rhodamine 123 excretion; settings: for Ratio Kout 96/384 wells, P-gp/BCRP: Kout R123 96-well / 384-well; for decrease of Kout of R123: 50 µM (cyclosporin A, elacridar, TPGS 10 µM; doxorubicin 20 µM);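 for all read-outs here: Caco-2 cells loaded 120 min with 10 µM rhodamine 123, then dye efflux read by fluorescence at 37 °C every 2 min for 1 h, Kout as slope, compared against compound-free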
[7] = Bidirectional transport (Papp) across Caco-2 monolayers on 24-well inserts, 21 days; settings: human, Caco-2, pH 7.4
[8] = tested on: P-gp/BCRP;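 note: Caco-2 cells loaded 120 min with 10 µM rhodamine 123, then dye efflux read by fluorescence at 37 °C every 2 min for 1 h, Kout as slope, compared against compound-free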
[9] = tested on: efflux pump activity in Caco-2 cells; experiment: b→a permeability of doxorubicin across Caco-2 with efflux pump inhibitors; assay type: in vitro ADME; settings: doxorubicin 20 µM; cyclosporin A 10 µM, elacridar 0.5 µM
[10] = tested on: P-gp; settings: read-out: P-gp IC50 based on the digoxin ER; cited from earlier work
[11] = tested on: Caco-2 cells

## CN(C)C(=O)CCSC(SCCC(=O)O)c1cccc(C=Cc2ccc3ccc(Cl)cc3n2)c1 (centres unmarked) [MK571, 3-[[3-[2-(7-chloroquinolin-2-yl)vinyl]phenyl]-(2-dimethylcarbamoylethylsulfanyl)methylsulfanyl] propionic acid]
[1]
  effect on rate out of CMFDA: decreased strongly
[1]; 96 wells
  Transporter interaction, MRPs: + (Interaction with efflux pumps when Kout ≤ 80% of control)
[1]; 384 wells
  Transporter interaction, MRPs: + (Interaction with efflux pumps when Kout ≤ 80% of control)
[1]; read-out: IC50 towards MRPs activity (CMFDA excretion), non-linear regression of pump out assay data
  IC50: 3.8 µM
[2]
  IC50: 2.43 µM
[3]
  IC50: 26 µM
[4]
  IC50: 50 µM
[5]
  IC50: 10 µM
[6]
  kout Rho 123, mean: 70.9 ± 10.6 pmol.min^−1.mg^−1 Protein
  Ratio Kout 96/384 wells, P-gp/BCRP: 1.19
[6]; 96 wells
  Transporter interaction, P-gp/BCRP: + (Interaction with efflux pumps when Kout ≤ 80% of control)
[6]; 384 wells
  Transporter interaction, P-gp/BCRP: + (Interaction with efflux pumps when Kout ≤ 80% of control)
[6]; MK571 50 µM, p < 0.001
  effect on rate out of cell of R123: slight reduction

## COC(=O)c1ccccc1-c1c2ccc(=N)cc-2oc2cc(N)ccc12 [R123, rhodamine 123]
[7]
  Papp A→B at 1 h: 1.51 ± 0.01 ×10⁻⁶ cm/s
  Papp B→A at 1 h: 8.94 ± 0.4 ×10⁻⁶ cm/s
  efflux ratio at 1 h, 20 µM: 5.96 ± 0.26

## CC(=O)Nc1ccc(O)cc1 [acetanomiphen]
[6]
  kout Rho 123, mean: 113.7 ± 12.6 pmol.min^−1.mg^−1 Protein
  Ratio Kout 96/384 wells, P-gp/BCRP: 1.08

## O=C(O)Cc1ccccc1Nc1c(Cl)cccc1Cl [diclofenac]
[1]; 96 wells
  Transporter interaction, MRPs: −
[1]; 384 wells
  Transporter interaction, MRPs: −

## COc1ccc([C@@H]2Sc3ccccc3N(CCN(C)C)C(=O)[C@@H]2OC(C)=O)cc1 [diltiazem]
[1]; 96 wells
  Transporter interaction, MRPs: −
[1]; 384 wells
  Transporter interaction, MRPs: −

## COc1cccc2c1C(=O)c1c(O)c3c(c(O)c1C2=O)C[C@@](O)(C(=O)CO)C[C@@H]3O[C@H]1C[C@H](N)[C@H](O)[C@H](C)O1 [doxorubicin]
[1]
  effect on rate out of CMFDA: decreased strongly
[1]; 96 wells
  Transporter interaction, MRPs: + (Interaction with efflux pumps when Kout ≤ 80% of control)
[1]; 384 wells
  Transporter interaction, MRPs: −
[8]; 96 wells
  Transporter interaction, P-gp/BCRP: + (Interaction with efflux pumps when Kout ≤ 80% of control)
[8]; 384 wells
  Transporter interaction, P-gp/BCRP: + (Interaction with efflux pumps when Kout ≤ 80% of control)
[6]; p < 0.001
  decrease of Kout of R123: more than 30%
[6]
  Ratio Kout 96/384 wells, P-gp/BCRP: 1.03
[7]
  Papp A→B at 1 h: 0.36 ± 0.03 ×10⁻⁶ cm/s
  Papp B→A at 1 h: 7.6 ± 0.4 ×10⁻⁶ cm/s
  efflux ratio at 1 h, 20 µM: 21.9 ± 1.11

## COc1cc2c(cc1OC)CN(CCc1ccc(NC(=O)c3cccc4c(=O)c5cccc(OC)c5[nH]c34)cc1)CC2 [elacridar]
[9]
  reduction of b→a permeability of doxorubicin: 25%
[1]
  reduction of kout of CMFDA: more than 20%
[1]; 96 wells
  Transporter interaction, MRPs: + (Interaction with efflux pumps when Kout ≤ 80% of control)
[1]; 384 wells
  Transporter interaction, MRPs: + (Interaction with efflux pumps when Kout ≤ 80% of control)
[8]; 96 wells
  Transporter interaction, P-gp/BCRP: + (Interaction with efflux pumps when Kout ≤ 80% of control)
[8]; 384 wells
  Transporter interaction, P-gp/BCRP: + (Interaction with efflux pumps when Kout ≤ 80% of control)
[6]; p < 0.001
  decrease of Kout of R123: more than 30%
[6]
  Ratio Kout 96/384 wells, P-gp/BCRP: 0.81

## CN(C)C(=O)C(CCN1CCC(O)(c2ccc(Cl)cc2)CC1)(c1ccccc1)c1ccccc1 [loperamide]
[1]
  reduction of kout of CMFDA: more than 20%
[1]; 96 wells
  Transporter interaction, MRPs: + (Interaction with efflux pumps when Kout ≤ 80% of control)
[1]; 384 wells
  Transporter interaction, MRPs: + (Interaction with efflux pumps when Kout ≤ 80% of control)
[6]
  kout Rho 123, mean: 42.0 ± 4.9 pmol.min^−1.mg^−1 Protein
  Ratio Kout 96/384 wells, P-gp/BCRP: 1.01
[6]; p < 0.001
  decrease of Kout of R123: more than 30%
[6]; 96 wells
  Transporter interaction, P-gp/BCRP: + (Interaction with efflux pumps when Kout ≤ 80% of control)
[6]; 384 wells
  Transporter interaction, P-gp/BCRP: + (Interaction with efflux pumps when Kout ≤ 80% of control)

## OC[C@@H](O)[C@@H](O)[C@H](O)[C@H](O)CO [mannitol, Mannitol D-[1-14C]]
[7]
  Papp A→B at 1 h: 0.26 ± 0.03 ×10⁻⁶ cm/s
  Papp B→A at 1 h: 0.32 ± 0.03 ×10⁻⁶ cm/s

## CCC1(c2ccccc2)C(=O)NC(=O)NC1=O [phenobarbital]
[6]
  kout Rho 123, mean: 107.1 ± 10.0 pmol.min^−1.mg^−1 Protein
  Ratio Kout 96/384 wells, P-gp/BCRP: 1.09

## C=C[C@H]1C[N@@]2CC[C@H]1C[C@@H]2[C@@H](O)c1ccnc2ccc(OC)cc12 [quinidine]
[10]
  IC50: 4.9 ± 0.9 µM

## CO[C@H]1/C=C/O[C@@]2(C)Oc3c(C)c(O)c4c(O)c(c(/C=N/N5CCN(C)CC5)c(O)c4c3C2=O)NC(=O)/C(C)=C\C=C\[C@H](C)[C@H](O)[C@@H](C)[C@@H](O)[C@@H](C)[C@H](OC(C)=O)[C@@H]1C [rifampicin]
[1]
  reduction of kout of CMFDA: more than 20%
[8]; 96 wells
  Transporter interaction, P-gp/BCRP: + (Interaction with efflux pumps when Kout ≤ 80% of control)
[8]; 384 wells
  Transporter interaction, P-gp/BCRP: + (Interaction with efflux pumps when Kout ≤ 80% of control)
[6]; p < 0.001
  decrease of Kout of R123: more than 30%
[6]
  Ratio Kout 96/384 wells, P-gp/BCRP: 1.12

## CC[C@]1(O)C[C@@H]2CN(CCc3c([nH]c4ccccc34)[C@@](C(=O)OC)(c3cc4c(cc3OC)N(C)[C@H]3[C@@](O)(C(=O)OC)[C@H](OC(C)=O)[C@]5(CC)C=CCN6CC[C@]43[C@@H]65)C2)C1 [vinblastine]
[1]
  reduction of kout of CMFDA: more than 20%
[6]; p < 0.001
  decrease of Kout of R123: more than 30%
[6]; 96 wells
  Transporter interaction, P-gp/BCRP: + (Interaction with efflux pumps when Kout ≤ 80% of control)
[6]; 384 wells
  Transporter interaction, P-gp/BCRP: + (Interaction with efflux pumps when Kout ≤ 80% of control)
[6]
  Ratio Kout 96/384 wells, P-gp/BCRP: 0.99

## D-α-Tocopherol polyethylene glycol 1000 succinate
[6]
  kout Rho 123, mean: 33.7 ± 2.7 pmol.min^−1.mg^−1 Protein
[6]; p < 0.001
  decrease of Kout of R123: more than 30%
[6]; 96 wells
  Transporter interaction, P-gp/BCRP: + (Interaction with efflux pumps when Kout ≤ 80% of control)
[6]; 384 wells
  Transporter interaction, P-gp/BCRP: + (Interaction with efflux pumps when Kout ≤ 80% of control)

## Lucifer yellow
[11]
  Papp of Lucifer yellow (apical-to-basal): 0.066 ± 0.016 × 10^−6 cm/s
